In US9656988B2 (Pharmacyclics LLC, priority 2013, dated 2017):
Where two headings read alike, the source gives them in different places.

Target: BTK (Homo sapiens (Human), UniProt Q06187)
Assay: Btk in vitro inhibitory activity (one of Method A TR-FRET, Method B electrophoretic mobility shift, Method C radiometric filter binding)
Format: biochemical
[1] = determined using one of the methods of Example 355a, 355b and 355c, read-out: BTK IC50

Sequence of BTK (Q06187 whole entry): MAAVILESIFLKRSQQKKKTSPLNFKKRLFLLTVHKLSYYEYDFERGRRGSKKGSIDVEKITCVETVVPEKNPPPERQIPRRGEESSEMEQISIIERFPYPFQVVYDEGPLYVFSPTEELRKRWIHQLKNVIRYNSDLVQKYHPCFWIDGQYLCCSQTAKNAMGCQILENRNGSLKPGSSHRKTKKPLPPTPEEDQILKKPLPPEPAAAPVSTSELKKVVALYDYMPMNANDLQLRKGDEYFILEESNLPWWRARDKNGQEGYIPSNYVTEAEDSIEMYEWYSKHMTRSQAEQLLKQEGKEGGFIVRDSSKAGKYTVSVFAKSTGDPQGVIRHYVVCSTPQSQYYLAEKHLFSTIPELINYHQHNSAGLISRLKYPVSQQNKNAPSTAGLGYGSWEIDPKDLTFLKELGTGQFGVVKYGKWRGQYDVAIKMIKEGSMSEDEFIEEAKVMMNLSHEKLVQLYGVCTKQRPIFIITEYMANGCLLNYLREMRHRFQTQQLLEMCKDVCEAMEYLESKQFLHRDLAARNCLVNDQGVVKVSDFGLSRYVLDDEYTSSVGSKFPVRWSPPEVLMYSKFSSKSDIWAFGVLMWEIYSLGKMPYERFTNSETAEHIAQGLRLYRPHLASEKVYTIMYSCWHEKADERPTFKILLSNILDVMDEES

Compound	IC50 [1] [nM]	other results
CN(C)C(=O)N[C@@H]1CCCN(c2nnc(C(N)=O)c(Nc3ccc(C4CCN(C5CCCC5)CC4)cc3)n2)C1 [Example 329, (R)-5-(4-(1-cyclopentylpiperidin-4-yl)phenylamino)-3-(3-(3,3-dimethylureido)piperidin-1-yl)-1,2,4-triazine-6-carboxamide]	< 10	IC50 (Btk (IC50)): < 10 nM
CCC(=O)N[C@@H]1CCCN(c2nnc(C(N)=O)c(Nc3ccc(C4CCN(C5CCCC5)CC4)cc3)n2)C1 [Example 330, (R)-5-(4-(1-cyclopentylpiperidin-4-yl)phenylamino)-3-(3-propionamidopiperidin-1-yl)-1,2,4-triazine-6-carboxamide]	< 10	IC50 (read-out: Btk (IC50)): < 10 nM
COc1ccc(C(=O)N[C@@H]2CCCN(c3nnc(C(N)=O)c(Nc4ccc(N5CCN(C6CCCC6)CC5)cc4)n3)C2)cc1 [Example 331, (R)-5-(4-(4-cyclopentylpiperazin-1-yl)phenylamino)-3-(3-(4-methoxybenzamido)piperidin-1-yl)-1,2,4-triazine-6-carboxamide]	< 10	–
COc1ccc(C(=O)N[C@@H]2CCCN(c3nnc(C(N)=O)c(Nc4ccc(N5CCC(C(=O)N(C)C)CC5)cc4)n3)C2)cc1 [Example 332, (R)-5-(4-(4-(dimethylcarbamoyl)piperidin-1-yl)phenylamino)-3-(3-(4-methoxybenzamido)piperidin-1-yl)-1,2,4-triazine-6-carboxamide]	< 10	–
COc1ccc(C(=O)N[C@@H]2CCCN(c3nnc(C(N)=O)c(Nc4ccc(C5CCNCC5)cc4)n3)C2)cc1 [Example 333, (R)-3-(3-(4-methoxybenzamido)piperidin-1-yl)-5-(4-(piperidin-4-yl)phenylamino)-1,2,4-triazine-6-carboxamide]	< 10	–
COc1ccc(C(=O)N[C@@H]2CCCN(c3nnc(C(N)=O)c(Nc4ccc(C5CCN(C6CCCC6)CC5)cc4)n3)C2)cc1 [Example 334, (R)-5-(4-(1-cyclopentylpiperidin-4-yl)phenylamino)-3-(3-(4-methoxybenzamido)piperidin-1-yl)-1,2,4-triazine-6-carboxamide]	< 10	–
NC(=O)c1nnc(N2CCC[C@@H](NC(=O)N3CCCCC3)C2)nc1Nc1ccc(C2CCNCC2)cc1 [Example 335, (R)-5-(4-(piperidin-4-yl)phenylamino)-3-(3-(piperidine-1-carboxamido)piperidin-1-yl)-1,2,4-triazine-6-carboxamide]	< 10	–
NC(=O)c1nnc(N2CCC[C@@H](NC(=O)N3CCCCC3)C2)nc1Nc1ccc(C2CCN(C3CCCC3)CC2)cc1 [Example 336, (R)-5-(4-(1-cyclopentylpiperidin-4-yl)phenylamino)-3-(3-(piperidine-1-carboxamido)piperidin-1-yl)-1,2,4-triazine-6-carboxamide]	< 10	IC50 (read-out: Btk (IC50)): < 10 nM
NC(=O)c1nnc(N2CCC[C@@H](NC(=O)N3CCCCC3)C2)nc1Nc1ccc(C2CCN(C=O)CC2)cc1 [Example 337, (R)-5-(4-(1-formylpiperidin-4-yl)phenylamino)-3-(3-(piperidine-1-carboxamido)piperidin-1-yl)-1,2,4-triazine-6-carboxamide]	< 10	IC50 (read-out: Btk (IC50)): < 10 nM
CC(=O)N1CCC(c2ccc(Nc3nc(N4CCC[C@@H](NC(=O)N5CCCCC5)C4)nnc3C(N)=O)cc2)CC1 [Example 338, (R)-5-(4-(1-acetylpiperidin-4-yl)phenylamino)-3-(3-(piperidine-1-carboxamido)piperidin-1-yl)-1,2,4-triazine-6-carboxamide]	< 10	IC50 (read-out: Btk (IC50)): < 10 nM
CCC(=O)N1CCC(c2ccc(Nc3nc(N4CCC[C@@H](NC(=O)N5CCCCC5)C4)nnc3C(N)=O)cc2)CC1 [Example 339, (R)-3-(3-(piperidine-1-carboxamido)piperidin-1-yl)-5-(4-(1-propionylpiperidin-4-yl)phenylamino)-1,2,4-triazine-6-carboxamide]	< 10	IC50 (read-out: Btk (IC50)): < 10 nM
C=CC(=O)N1CCC(c2ccc(Nc3nc(N4CCC[C@@H](NC(=O)N5CCCCC5)C4)nnc3C(N)=O)cc2)CC1 [Example 340]	< 10	–
N#CCC(=O)N1CCC(c2ccc(Nc3nc(N4CCC[C@@H](NC(=O)N5CCCCC5)C4)nnc3C(N)=O)cc2)CC1 [Example 341, (R)-5-(4-(1-(2-cyanoacetyl)piperidin-4-yl)phenylamino)-3-(3-(piperidine-1-carboxamido)piperidin-1-yl)-1,2,4-triazine-6-carboxamide]	< 10	IC50: 10 to 100 nM
CCOc1ccc(C(=O)N[C@@H]2CCCN(c3nnc(C(N)=O)c(Nc4ccc(C(=N)N(C)C)cc4)n3)C2)cc1 [Example 342, (R)-5-(4-(N,N-dimethylcarbamimidoyl)phenylamino)-3-(3-(4-ethoxybenzamido)piperidin-1-yl)-1,2,4-triazine-6-carboxamide]	10 to 100	IC50 (read-out: Btk (IC50)): 10 to 100 nM
CCOc1ccc(C(=O)N[C@@H]2CCCN(c3nnc(C(N)=O)c(Nc4ccc(C(=N)N5CCCC5)cc4)n3)C2)cc1 [Example 343, (R)-3-(3-(4-ethoxybenzamido)piperidin-1-yl)-5-(4-(imino(pyrrolidin-1-yl)methyl)phenylamino)-1,2,4-triazine-6-carboxamide]	< 10	IC50 (read-out: Btk (IC50)): < 10 nM
CCOc1ccc(C(=O)N[C@@H]2CCCN(c3nnc(C(N)=O)c(Nc4ccc(C5=NCCN5C)cc4)n3)C2)cc1 [Example 344, (R)-3-(3-(4-ethoxybenzamido)piperidin-1-yl)-5-(4-(1-methyl-4,5-dihydro-1H-imidazol-2-yl)phenylamino)-1,2,4-triazine-6-carboxamide]	10 to 100	–
COCCOc1ccc(Nc2nc(N3CCC[C@@H](NC(=O)N[C@@H](C)c4ccccc4)C3)cnc2C(N)=O)cc1 [Example 346, 3-(4-(2-methoxyethoxy)phenylamino)-5-((R)-3-(3-((S)-1-phenylethyl)ureido)piperidin-1-yl)pyrazine-2-carboxamide]	10 to 100	–
COCCOc1ccc(Nc2nc(N3CCC[C@@H](NC(=O)N[C@H](C)c4ccccc4)C3)cnc2C(N)=O)cc1 [Example 347, 3-(4-(2-methoxyethoxy)phenylamino)-5-((R)-3-(3-((R)-1-phenylethyl)ureido)piperidin-1-yl)pyrazine-2-carboxamide]	10 to 100	–
Cc1cc(Nc2nc(N[C@@H]3CCCCN(C(=O)N(C)C)C3)cnc2C(N)=O)sn1 [Example 348, (R)-3-(5-carbamoyl-6-(3-methylisothiazol-5-ylamino)pyrazin-2-ylamino)-N,N-dimethylazepane-1-carboxamide]	10 to 100	–
CN(C(=O)N[C@@H]1CCCN(c2cnc(C(N)=O)c(NC3CC3)n2)C1)c1ccccc1 [Example 350, (R)-3-(cyclopropylamino)-5-(3-(3-methyl-3-phenylureido)piperidin-1-yl)pyrazine-2-carboxamide]	1000 to 10000	–
CN(C(=O)N[C@@H]1CCCN(c2cnc(C(N)=O)c(NC3CCCC3)n2)C1)c1ccccc1 [Example 351, (R)-3-(cyclopentylamino)-5-(3-(3-methyl-3-phenylureido)piperidin-1-yl)pyrazine-2-carboxamide]	1000 to 10000	–
CN(C(=O)N[C@@H]1CCCN(c2cnc(C(N)=O)c(NC3CC3)n2)C1)c1cc(Cl)cc(C(F)(F)F)c1 [Example 352, (R)-5-(3-(3-(3-chloro-5-(trifluoromethyl)phenyl)-3-methylureido)piperidin-1-yl)-3-(cyclopropylamino)pyrazine-2-carboxamide]	1000 to 10000	–
CN(C(=O)N[C@@H]1CCCN(c2cnc(C(N)=O)c(NC3CCOCC3)n2)C1)c1cc(Cl)cc(C(F)(F)F)c1 [Example 353, (R)-5-(3-(3-(3-chloro-5-(trifluoromethyl)phenyl)-3-methylureido)piperidin-1-yl)-3-(tetrahydro-2H-pyran-4-ylamino)pyrazine-2-carboxamide]	1000 to 10000	–
NC(=O)c1ncc(N2CCC[C@@H](NC(=O)NC3CCOCC3)C2)nc1NC1CCOCC1 [Example 354, (R)-5-(3-(3-(tetrahydro-2H-pyran-4-yl)ureido)piperidin-1-yl)-3-(tetrahydro-2H-pyran-4-ylamino)pyrazine-2-carboxamide]	1000 to 10000	–
